Assay results: patent US11053204B2, “Pyrimidinyloxy benzene derivatives as herbicides” (FMC Corporation, priority 2015, dated 2021)

How the values were obtained:
Assay type in all cases: in vivo
[1] = system: wheat (Triticum aestivum); test: Test A postemergence, visual injury rating; conditions: 0 is no effect, 100 is complete control
Excerpt: (§1) Seeds of plant species selected from barnyardgrass (Echinochloa crus-galli), kochia (Kochia scoparia), ragweed (common ragweed, Ambrosia elatior), Italian ryegrass (Lolium multiflorum), large (Lg) crabgrass (Digitaria sanguinalis), giant foxtail (Setaria faberii), morningglory (Ipomoea spp.), pigweed (Amaranthus retroflexus), velvetleaf (Abutilon theophrasti), wheat (Triticum aestivum), and corn (Zea mays) were planted into a blend of loam soil and sand and treated preemergence with a directed soil spray using test chemicals formulated in a non-phytotoxic solvent mixture which included a surfactant.
(§2) At the same time, plants selected from these crop and weed species and also blackgrass (Alopecurus myosuroides), and galium (catchweed bedstraw, Galium aparine) were planted in pots containing the same blend of loam soil and sand and treated with postemergence applications of test chemicals formulated in the same manner. Plants ranged in height from 2 to 10 cm and were in the one- to two-leaf stage for the postemergence treatment. Treated plants and untreated controls were maintained in a greenhouse for approximately 10 days, after which time all treated plants were compared to untreated controls and visually evaluated for injury. Plant response ratings, summarized in Table A, are based on a 0 to 100 scale where 0 is no effect and 100 is complete control. A dash (-) response means no test result.

[2] = system: blackgrass (Alopecurus myosuroides); test: Test A postemergence, visual injury rating; conditions: 0 is no effect, 100 is complete control
Excerpt: as §1, §2

kochia (Kochia scoparia) [3] = test: Test A postemergence, visual injury rating; conditions: 0 is no effect, 100 is complete control
Excerpt: as §1, §2

[4] = system: ragweed (common ragweed, Ambrosia elatior); test: Test A postemergence, visual injury rating; conditions: 0 is no effect, 100 is complete control
Excerpt: as §1, §2

[5] = system: giant foxtail (Setaria faberii); test: Test A postemergence, visual injury rating; conditions: 0 is no effect, 100 is complete control
Excerpt: as §1, §2

[6] = system: barnyardgrass (Echinochloa crus-galli); test: Test A postemergence, visual injury rating; conditions: 0 is no effect, 100 is complete control
Excerpt: as §1, §2

corn (Zea mays) = test: Test A postemergence, visual injury rating; conditions: 0 is no effect, 100 is complete control
Excerpt: as §1, §2

[7] = system: galium (catchweed bedstraw, Galium aparine); test: Test A postemergence, visual injury rating; conditions: 0 is no effect, 100 is complete control
Excerpt: as §1, §2

[8] = system: pigweed (Amaranthus retroflexus); test: Test A postemergence, visual injury rating; conditions: 0 is no effect, 100 is complete control
Excerpt: as §1, §2

[9] = system: Italian ryegrass (Lolium multiflorum); test: Test A postemergence, visual injury rating; conditions: 0 is no effect, 100 is complete control
Excerpt: as §1, §2

kochia (Kochia scoparia) [10] = test: Test A preemergence, visual injury rating; conditions: 0 to 100 scale (0 no effect, 100 complete control)
Summary of the method: (§3)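 Injury scores run from 0, no effect, to 100, complete control, judged by eye against untreated plants roughly 10 days after treatment. Chemicals carried a surfactant in a non-phytotoxic solvent and went onto loam–sand soil preemergence or onto one- to two-leaf seedlings postemergence.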

[11] = system: ragweed (common ragweed, Ambrosia elatior); test: Test A preemergence, visual injury rating; conditions: 0 to 100 scale (0 no effect, 100 complete control)
Summary of the method: as §3

[12] = system: giant foxtail (Setaria faberii); test: Test A preemergence, visual injury rating; conditions: 0 to 100 scale (0 no effect, 100 complete control)
Summary of the method: as §3

[13] = system: barnyardgrass (Echinochloa crus-galli); test: Test A preemergence, visual injury rating; conditions: 0 to 100 scale (0 no effect, 100 complete control)
Summary of the method: as §3

[14] = system: pigweed (Amaranthus retroflexus); test: Test A preemergence, visual injury rating; conditions: 0 to 100 scale (0 no effect, 100 complete control)
Summary of the method: as §3

[15] = system: Italian ryegrass (Lolium multiflorum); test: Test A preemergence, visual injury rating; conditions: 0 to 100 scale (0 no effect, 100 complete control)
Summary of the method: as §3

[16] = system: ducksalad (Heteranthera limosa); test: Test B flooded paddy test, plant response rating; conditions: 250 g ai/ha; Flood; scale of 0 to 100 where 0 is no effect and 100 is complete control; 13 to 15 days
Summary of the method: (§4)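 Flooded 3 cm over soil; compound into paddy water; depth kept constant. Greenhouse 13–15 d.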

[17] = system: barnyardgrass (Echinochloa crus-galli); test: Test B flooded paddy test, plant response rating; conditions: 250 g ai/ha; Flood; scale of 0 to 100 where 0 is no effect and 100 is complete control; 13 to 15 days
Summary of the method: as §4

rice (Oryza sativa) = test: Test B flooded paddy test, plant response rating; conditions: 250 g ai/ha; Flood; scale of 0 to 100 where 0 is no effect and 100 is complete control; 13 to 15 days
Summary of the method: as §4

[18] = system: sedge, umbrella (small-flower umbrella sedge, Cyperus difformis); test: Test B flooded paddy test, plant response rating; conditions: 250 g ai/ha; Flood; scale of 0 to 100 where 0 is no effect and 100 is complete control; 13 to 15 days
Summary of the method: as §4

[19] = 125 g ai/ha, 0 to 100 scale, approximately 10 days

Row | Structure (SMILES) | Wheat plant response rating (0 to 100 scale) ([1]; 500 g ai/ha) | Blackgrass plant response rating (0 to 100 scale) ([2]; 500 g ai/ha) | Kochia plant response rating (0 to 100 scale) (kochia (Kochia scoparia) [3]; 500 g ai/ha) | Ragweed plant response rating (0 to 100 scale) ([4]; 500 g ai/ha) | Foxtail, Giant plant response rating (0 to 100 scale) ([5]; 500 g ai/ha) | Barnyardgrass plant response rating (0 to 100 scale) ([6]; 500 g ai/ha) | Corn plant response rating (0 to 100 scale) (corn (Zea mays); 500 g ai/ha) | Galium plant response rating (0 to 100 scale) ([7]; 500 g ai/ha) | Pigweed plant response rating (0 to 100 scale) ([8]; 500 g ai/ha) | Ryegrass, Italian plant response rating (0 to 100 scale) ([9]; 500 g ai/ha) | Kochia plant response rating (kochia (Kochia scoparia) [10]; 125 g ai/ha) | Kochia plant response rating (kochia (Kochia scoparia) [10]; 500 g ai/ha) | Ragweed plant response rating ([11]; 125 g ai/ha) | Ragweed plant response rating ([11]; 500 g ai/ha) | Foxtail, Giant plant response rating ([12]; 125 g ai/ha) | Foxtail, Giant plant response rating ([12]; 500 g ai/ha) | Barnyardgrass plant response rating ([13]; 125 g ai/ha) | Barnyardgrass plant response rating ([13]; 500 g ai/ha) | Pigweed plant response rating ([14]; 125 g ai/ha) | Pigweed plant response rating ([14]; 500 g ai/ha) | also measured
1 | CCC(C)OC(=O)c1c(Br)cccc1Oc1ncc(Cl)cn1 (stereo not drawn) [Compound 84] | 20 | 0 | 70 | 0 | 60 | 40 | 40 | 40 | 70 | 0 | 0 | 0 | 0 | 0 | 0 | 100 | 0 | 90 | 0 | 100 | Wheat plant response rating [1, 19]: 0; Blackgrass plant response rating [2, 19]: 0; Kochia plant response rating (kochia (Kochia scoparia) [3]; [19]): 30; Ragweed plant response rating [4, 19]: 0; Foxtail, Giant plant response rating [5, 19]: 0; Barnyardgrass plant response rating [6, 19]: 0; Corn plant response rating (corn (Zea mays); [19]): 10; Galium plant response rating [7, 19]: 30; Pigweed plant response rating [8, 19]: 30; Ryegrass, Italian plant response rating [9, 19]: 0; Ryegrass, Italian plant response rating ([15]; 125 g ai/ha): 0; Ryegrass, Italian plant response rating ([15]; 500 g ai/ha): 0; Plant response rating, Ducksalad [16]: 0; Plant response rating, Barnyardgrass [17]: 0; Plant response rating, Rice (rice (Oryza sativa)): 0; Plant response rating, Sedge, Umbrella [18]: 0
2 | N#CCOC(=O)c1c(F)cccc1Oc1ncc(Cl)cn1 [Compound 49] | 0 | 0 | 0 | 0 | 0 | 0 | 0 | 0 | 0 | 0 | 0 | 0 | 0 | 0 | 0 | 0 | 0 | 0 | 0 | 0 | Wheat plant response rating (0 to 100 scale) ([1]; 125 g ai/ha): 0; Blackgrass plant response rating (0 to 100 scale) ([2]; 125 g ai/ha): 0; Kochia plant response rating (0 to 100 scale) (kochia (Kochia scoparia) [3]; 125 g ai/ha): 0; Ragweed plant response rating (0 to 100 scale) ([4]; 125 g ai/ha): 0; Foxtail, Giant plant response rating (0 to 100 scale) ([5]; 125 g ai/ha): 0; Barnyardgrass plant response rating (0 to 100 scale) ([6]; 125 g ai/ha): 0; Corn plant response rating (0 to 100 scale) (corn (Zea mays); 125 g ai/ha): 0; Galium plant response rating (0 to 100 scale) ([7]; 125 g ai/ha): 0; Pigweed plant response rating (0 to 100 scale) ([8]; 125 g ai/ha): 0; Ryegrass, Italian plant response rating (0 to 100 scale) ([9]; 125 g ai/ha): 0; Ryegrass, Italian plant response rating ([15]; 125 g ai/ha): 0; Ryegrass, Italian plant response rating ([15]; 500 g ai/ha): 0; Plant response rating, Ducksalad [16]: 0; Plant response rating, Barnyardgrass [17]: 20; Plant response rating, Rice (rice (Oryza sativa)): 20; Plant response rating, Sedge, Umbrella [18]: 0
